# Literature values, collected in patent US20240390295A1, “METHODS FOR TREATING DEPRESSION” (JANSSEN PHARMACEUTICA NV, priority 2020, published 2024).
# Test system: adult patients (aged 18-64 years) with TRD
# Settings: cited from earlier work
smiles,measurement,setting,value
"CN[C@]1(c2ccccc2Cl)CCCCC1=O [esketamine, (S)-2-(2-chlorophenyl)-2-(methylamino)cyclohexanone]","incidence of dissociation, dizziness, nausea, sedation, vertigo",ESK plus OAD therapy,≥ 5%
same,incidence relative to placebo plus an OAD,five most common treatment-emergent events,≥ 2 fold
